The target in data set [1] is T1, alanine racemase (SiAlr) (Streptococcus iniae, UniProt A0A3L8GG59).
T1 sequence (A0A3L8GG59 1-368): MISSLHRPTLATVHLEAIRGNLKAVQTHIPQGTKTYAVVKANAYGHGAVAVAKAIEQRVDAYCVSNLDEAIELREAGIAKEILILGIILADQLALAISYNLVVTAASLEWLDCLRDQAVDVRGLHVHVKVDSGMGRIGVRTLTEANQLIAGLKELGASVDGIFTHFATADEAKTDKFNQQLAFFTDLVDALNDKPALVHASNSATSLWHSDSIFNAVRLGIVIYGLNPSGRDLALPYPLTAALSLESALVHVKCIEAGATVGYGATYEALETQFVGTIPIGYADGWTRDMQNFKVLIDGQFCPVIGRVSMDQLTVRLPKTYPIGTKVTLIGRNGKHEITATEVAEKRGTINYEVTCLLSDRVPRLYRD
The data set can be described thus: enzyme inhibition assay with purified recombinant SiAlr. It counts as biochemical.

The target of data set [2] is T1, alanine racemase (SiAlr). Described as above. It counts as biochemical. This is another data set of the same source.
Substrate in data set [3]: C[C@H](N)C(=O)O
The data set can be described thus: HPLC racemization kinetics. The format is biochemical, Streptococcus iniae. To be noted: pyridoxal […]'-phosphate (PLP).

Substrate in data set [4]: C[C@@H](N)C(=O)O
The data set can be described thus: HPLC racemization kinetics. The format is biochemical, Streptococcus iniae. To be noted: pyridoxal […]'-phosphate (PLP).

Like-named read-outs stand apart in the source and are kept apart here.

Broadly, the IC50 is the concentration at which inhibition is half-maximal. `O=C(O)Cc1cc(O)ccc1O` [homogentisic acid]: on alanine racemase (SiAlr) [1], the half-inhibitory concentration (IC50) stood at 12.3 µM.

For the molecule `N[C@@H]1CON=C1O` [D-cycloserine], the IC50 on alanine racemase (SiAlr) [2] was found to be 3.69 µM.

As to `Oc1ccc(O)cc1` [hydroquinone], the IC50 at alanine racemase (SiAlr) [1] is 11.4 µM.

B1: alanine racemase (SiAlr) (Streptococcus iniae) (protein)
chain: T1 sequence (A0A3L8GG59 1-368)
As a reminder, the Km is the substrate concentration at which the rate is half of its maximum. Consider B1, for which the Michaelis-Menten constant (Km) was found to be 33.11 mM in data set [3] and 14.36 mM in data set [4].

The record behind these values is publication PMC7256847 (Polish Journal of Microbiology, 2019).
